From US6608082B1, “Treatment of erectile dysfunction using isoquinoline compound melanocortin receptor ligands” (Lion Bioscience AG, priority 1998, dated 2003)

Target: T1, MCR-1 (Homo sapiens, UniProt Q01726)
T1 construct: expressed in transfected cells; host or cells: HEK 293
Experiment: Melanocortin receptor binding assay, competition with 125I-HP 467, HEK 293 cells expressing hMCR-1
Settings: for % Disp. MC-1 10 μM: displacement of 125I-HP 467 at 10 μM isoquinoline compound
Method: All cell culture media and reagents were obtained from GibcoBRL (Gaithersburg Md.), except for COSMIC CALF SERUM (HyClone; Logan Utah).
Cells were suspended in PBS, 10% COSMIC CALF SERUM and 1 mM CaCl2. Cell suspensions were prepared at a density of 2×10^4 cells/ml for HEK 293 cells expressing hMCR-3, hMCR-4 or hMCR-5, and 1×10^5 cells/ml for HEK 293 cells expressing hMCR-1. Suspensions were placed in a water bath and allowed to warm to 37° C. for 1 hr.
Binding assays were performed in a total volume of 250 μl for HEK 293 cells. […] To each tube was added 4×10^3 HEK 293 cells expressing hMCR-3, hMCR-4 or hMCR-5, or 2×10^4 cells expressing hMCR-1. Assays were incubated for 2.5 hr at 37° C.
GF/B filter plates were prepared by soaking for at least one hour in 5 mg/ml BSA and 10 mM CaCl2. Assays were filtered using a Brandel 96-well cell harvester (Brandel Inc.; Gaithersburg, Md.). The filters were washed four times with cold 50 mM Tris, pH 7.4, the filter plates were dehydrated for 2 hr and 35 μl of MICROSCINT was added to each well. Filter plates were counted using a Packard Topcount (Packard Instrument Co.) and data analyzed using GraphPad PRISM v2.0 (GraphPad Software Inc.; San Diego Calif.) and Microsoft EXCEL v5.0a (Microsoft Corp.; Redmond Wash.).
To assay isoquinoline compounds, binding assays were performed in duplicate in a 96 well format. […] A 0.2 ml aliquot of suspended cells was added to each well to give the cell numbers indicate above, and the cells were incubated at 37° C. for 2.5 hr. Cells were harvested on GF/B filter plates as described above and counted.

T1 sequence (Q01726 whole entry): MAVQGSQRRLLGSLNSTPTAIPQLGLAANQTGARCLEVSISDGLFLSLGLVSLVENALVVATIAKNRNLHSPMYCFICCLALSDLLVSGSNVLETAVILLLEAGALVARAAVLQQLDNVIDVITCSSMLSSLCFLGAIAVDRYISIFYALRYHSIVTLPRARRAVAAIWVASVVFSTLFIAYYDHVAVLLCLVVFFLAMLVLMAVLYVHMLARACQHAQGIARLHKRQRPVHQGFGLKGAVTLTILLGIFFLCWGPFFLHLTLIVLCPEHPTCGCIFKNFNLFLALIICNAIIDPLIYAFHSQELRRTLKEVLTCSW

| Compound | % Disp. MC-1 10 μM (first of duplicate) [%] | % Disp. MC-1 10 μM (second of duplicate) [%] | % Disp. of 125I-HP 467 (first of duplicate) (10 μM isoquinoline compound, HEK 293 cells expressing MCR-1, duplicate 1) [%] | % Disp. of 125I-HP 467 (second of duplicate) (10 μM isoquinoline compound, HEK 293 cells expressing MCR-1, duplicate 2) [%] |
| --- | --- | --- | --- | --- |
| CNC(CN)CN1Cc2ccccc2C(CNC2CCCCC2)C1c1ccc2c(c1)OCCO2 (stereo not shown) [TRG 2405-93] | 43.2 | 56.2 |  |  |
| CNC(CN)CN1Cc2ccccc2C(CNC2CCCCC2)C1c1cccc2ccccc12 (stereo not shown) [TRG 2405-95] | 45.6 | 51.1 |  |  |
| CNC(CN)CN1Cc2ccccc2C(CNC2CCCCC2)C1c1ccc(F)c(F)c1F (stereo not shown) [TRG 2405-96] | 44.5 | 54.4 |  |  |
| CNC(CN)CN1Cc2ccccc2C(CNC2CCCCC2)C1c1cc(Cl)cc(Cl)c1Cl (stereo not shown) [TRG 2405-97] | 58.2 | 61.1 |  |  |
| CNC(CN)CN1Cc2ccccc2C(CNC2CCCCC2)C1c1cccc2c1OCO2 (stereo not shown) [TRG 2405-98] | 20.1 | 48.3 |  |  |
| CNC(CN)CN1Cc2ccccc2C(CNC2CCCCC2)C1c1cccc(F)c1F (stereo not shown) [TRG 2405-99] | 34.7 | 54.2 |  |  |
| CNC(CN)CN1Cc2ccccc2C(CNC2CCCCC2)C1c1c(F)cccc1F (stereo not shown) [TRG 2405-101] | 34 | 45.3 |  |  |
| CNC(CN)CN1Cc2ccccc2C(CNC2CCCCC2)C1c1ccccc1Br (stereo not shown) [TRG 2405-102] | 44.7 | 50.4 |  |  |
| CNC(CN)CN1Cc2ccccc2C(CNC2CCCCC2)C1c1c(F)cccc1Cl (stereo not shown) [TRG 2405-104] | 32.8 | 33.3 |  |  |
| CNC(CN)CN1Cc2ccccc2C(CNC2CCCCC2)C1c1ccccc1CN (stereo not shown) [TRG 2405-105] | 20.2 | 49.9 |  |  |
| CNC(CN)CN1Cc2ccccc2C(CNC2CCCCC2)C1c1ccccc1F (stereo not shown) [TRG 2405-106] | 40.7 | 44.7 |  |  |
| CNC(CN)CN1Cc2ccccc2C(CNC2CCCCC2)C1c1ccco1 (stereo not shown) [TRG 2405-107] | 43.1 | 52.1 |  |  |
| CNC(CN)CN1Cc2ccccc2C(CNC2CCCCC2)C1c1ncc[nH]1 (stereo not shown) [TRG 2405-108] | 46 | 46.6 |  |  |
| CNC(CN)CN1Cc2ccccc2C(CNC2CCCCC2)C1c1ccccc1OC (stereo not shown) [TRG 2405-109] | 34.7 | 44.7 |  |  |
| CNC(CN)CN1Cc2ccccc2C(CNC2CCCCC2)C1c1ccc2ccccc2c1 (stereo not shown) [TRG 2405-110] | 59.5 | 61.6 |  |  |
| CNC(CN)CN1Cc2ccccc2C(CNC2CCCCC2)C1c1cccs1 (stereo not shown) [TRG 2405-113] | 40 | 58.5 |  |  |
| CNC(CN)CN1Cc2ccccc2C(CNC2CCCCC2)C1c1ccc(Cl)c(Cl)c1 (stereo not shown) [TRG 2405-116] | 62.3 | 63 |  |  |
| CNC(CN)CN1Cc2ccccc2C(CNC2CCCCC2)C1c1ccc(F)c(F)c1 (stereo not shown) [TRG 2405-117] | 40.9 | 55.7 |  |  |
| CNC(CN)CN1Cc2ccccc2C(CNC2CCCCC2)C1c1cc(O)cc(O)c1 (stereo not shown) [TRG 2405-119] | 25.9 | 39.8 |  |  |
| CNC(CN)CN1Cc2ccccc2C(CNC2CCCCC2)C1c1cc(OC)cc(OC)c1 (stereo not shown) [TRG 2405-121] | 35.3 | 38.7 |  |  |
| CNC(CN)CN1Cc2ccccc2C(CNC2CCCCC2)C1c1cc(C)c(O)c(C)c1 (stereo not shown) [TRG 2405-122] | 17.6 | 40.7 |  |  |
| CNC(CN)CN1Cc2ccccc2C(CNC2CCCCC2)C1c1cccc(Oc2ccc(Cl)c(Cl)c2)c1 (stereo not shown) [TRG 2405-123] | 47.9 | 55.6 |  |  |
| CNC(CN)CN1Cc2ccccc2C(CNC2CCCCC2)C1c1cccc(C(F)(F)F)c1 (stereo not shown) [TRG 2405-125] | 59.1 | 58.4 |  |  |
| CNC(CN)CN1Cc2ccccc2C(CNC2CCCCC2)C1c1cccc(Br)c1 (stereo not shown) [TRG 2405-127] | 50.6 | 60.3 |  |  |
| CNC(CN)CN1Cc2ccccc2C(CNC2CCCCC2)C1c1cccc(CN)c1 (stereo not shown) [TRG 2405-129] | 39.8 | 39.6 |  |  |
| CNC(CN)CN1Cc2ccccc2C(CNC2CCCCC2)C1c1ccc(OC)c(F)c1 (stereo not shown) [TRG 2405-130] | 48.9 | 43.3 |  |  |
| CNC(CN)CN1Cc2ccccc2C(CNC2CCCCC2)C1c1cccc(F)c1 (stereo not shown) [TRG 2405-131] | 39.2 | 55.7 |  |  |

| Compound | % Disp. MC-1 10 μM (first of duplicate) [%] | % Disp. MC-1 10 μM (second of duplicate) [%] | % Disp. of 125I-HP 467 (first of duplicate) (10 μM isoquinoline compound, HEK 293 cells expressing MCR-1, duplicate 1) [%] | % Disp. of 125I-HP 467 (second of duplicate) (10 μM isoquinoline compound, HEK 293 cells expressing MCR-1, duplicate 2) [%] |
| --- | --- | --- | --- | --- |
| CNC(CN)CN1Cc2ccccc2C(CNC2CCCCC2)C1c1ccoc1 (stereo not shown) [TRG 2405-132] | 51.6 | 51.7 |  |  |
| CNC(CN)CN1Cc2ccccc2C(CNC2CCCCC2)C1c1cccc(OC)c1 (stereo not shown) [TRG 2405-135] | 43.9 | 39.7 |  |  |
| CNC(CN)CN1Cc2ccccc2C(CNC2CCCCC2)C1c1cccc(C)c1 (stereo not shown) [TRG 2405-137] | 40.6 | 46 |  |  |
| CNC(CN)CN1Cc2ccccc2C(CNC2CCCCC2)C1c1cccc([N+](=O)[O-])c1 (stereo not shown) [TRG 2405-139] | 40.3 | 45.5 |  |  |
| CNC(CN)CN1Cc2ccccc2C(CNC2CCCCC2)C1c1cccc(Oc2ccccc2)c1 (stereo not shown) [TRG 2405-140] | 67.6 | 67.8 |  |  |
| CNC(CN)CN1Cc2ccccc2C(CNC2CCCCC2)C1c1cccnc1 (stereo not shown) [TRG 2405-141] | 15 | 16.2 |  |  |
| CNC(CN)CN1Cc2ccccc2C(CNC2CCCCC2)C1c1cnc2ccccc2c1 (stereo not shown) [TRG 2405-142] | 48.5 | 45.1 |  |  |
| CNC(CN)CN1Cc2ccccc2C(CNC2CCCCC2)C1c1ccc(OCCCN(C)C)cc1 (stereo not shown) [TRG 2405-144] | 29.6 | 41.7 |  |  |
| CNC(CN)CN1Cc2ccccc2C(CNC2CCCCC2)C1c1ccc(N(C)C)cc1 (stereo not shown) [TRG 2405-145] | 41.2 | 49.7 |  |  |
| CNC(CN)CN1Cc2ccccc2C(CNC2CCCCC2)C1c1ccc(SC)cc1 (stereo not shown) [TRG 2405-147] | 31.6 | 38.9 |  |  |
| CCNc1ccc(C2C(CNC3CCCCC3)c3ccccc3CN2CC(CN)NC)cc1 (stereo not shown) [TRG 2405-149] | 30.1 | 52.3 |  |  |
| CNC(CN)CN1Cc2ccccc2C(CNC2CCCCC2)C1c1ccc(OC)cc1 (stereo not shown) [TRG 2405-150] | 37.6 | 54.7 |  |  |
| CNC(CN)CN1Cc2ccccc2C(CNC2CCCCC2)C1c1ccc(-c2ccccc2)cc1 (stereo not shown) [TRG 2405-151] | 61.5 | 57.6 |  |  |
| CNC(CN)CN1Cc2ccccc2C(CNC2CCCCC2)C1c1ccc(CN)cc1 (stereo not shown) [TRG 2405-154] | 43.1 | 54.8 |  |  |
| CNC(CN)CN1Cc2ccccc2C(CNC2CCCCC2)C1c1ccc(F)cc1 (stereo not shown) [TRG 2405-155] | 52.3 | 55.6 |  |  |
| CNC(CN)CN1Cc2ccccc2C(CNC2CCCCC2)C1c1ccc(C(C)C)cc1 (stereo not shown) [TRG 2405-157] | 56.4 | 56.1 |  |  |
| CNC(CN)CN1Cc2ccccc2C(CNC2CCCCC2)C1c1ccc(OC)c2ccccc12 (stereo not shown) [TRG 2405-158] | 45.6 | 45.8 |  |  |
| CNC(CN)CN1Cc2ccccc2C(CNC2CCCCC2)C1c1ccc(C)cc1 (stereo not shown) [TRG 2405-159] | 51 | 53.5 |  |  |
| CNC(CN)CN1Cc2ccccc2C(CNC2CCCCC2)C1c1ccc(Oc2ccccc2)cc1 (stereo not shown) [TRG 2405-162] | 71 | 59.6 |  |  |
| CCCOc1ccc(C2C(CNC3CCCCC3)c3ccccc3CN2CC(CN)NC)cc1 (stereo not shown) [TRG 2405-163] | 62.4 | 58.1 |  |  |
| CNC(CN)CN1Cc2ccccc2C(CNC2CCCCC2)C1c1ccncc1 (stereo not shown) [TRG 2405-164] | 24.7 | 33.5 |  |  |
| CNC(CN)CN1Cc2ccccc2C(CNC2CCCCC2)C1c1ccnc2ccccc12 (stereo not shown) [TRG 2405-165] | 37.3 | 34.6 |  |  |
| CNC(CN)CN1Cc2ccccc2C(CNC2CCCCC2)C1c1ccc(C)s1 (stereo not shown) [TRG 2405-168] | 44.9 | 24.1 |  |  |
| CNC(CN)CN1Cc2ccccc2C(CNC2CCCCC2)C1c1ccc(C)o1 (stereo not shown) [TRG 2405-169] | 62.2 | 51.5 |  |  |
| CNC(CN)CN1Cc2ccccc2C(CNC2CCCCC2)C1c1cccc(C)n1 (stereo not shown) [TRG 2405-171] | 63.1 | 49.7 |  |  |
| CNC(CN)CN1Cc2ccccc2C(CNC2CCCCC2)C1c1ccc2cccc(O)c2n1 (stereo not shown) [TRG 2405-172] |  |  | 59.4 | 43.9 |
